Source: patent US10662138B2, “Herbicidal propynyl-phenyl compounds” (Syngenta Participations AG, priority 2014, dated 2020)

Columns and labels:
Format in all cases: in vivo
Echinochloa crus-galli = test: Glasshouse assay for herbicidal activity, post-emergence, ECHCG; settings: visual 13 days after application, 100%=total damage; for pest or weed control at 250 g/ha / pest or weed control at 30 g/ha: Echinochloa crus-galli, 312 h, read-out: Percentage phytotoxicity ECHCG
Protocol: (§1) Seeds of a variety of test plant species were sown in standard soil ** in pots. After cultivation for one day (pre-emergence) or after 8 days cultivation (post-emergence) under controlled conditions in a glasshouse (at 24/16° C., day/night; 14 hours light; 65% humidity), the plants were sprayed with an aqueous spray solution derived from the formulation of the technical active ingredient (the test herbicide) in acetone/water (50:50) solution containing 0.5% Tween 20 (polyoxyethylene sorbitan monolaurate, CAS Reg. No. 9005-64-5). The test plants were then grown on under controlled conditions in a glasshouse (at 24/16° C., day/night; 14 hours light; 65% humidity) and watered twice daily. 13 Days after application of the test herbicide, for pre- and post-emergence, the test was evaluated visually for percentage phytotoxicity to each plant (where 100%=total damage to plant; 0%=no damage to plant). Generally, each test herbicide is only tested on 1 plant per plant species for each application rate tested and for each application timing. The “standard soil” in Biological Example 1 is usually a “sand” or “sandy loam” type of soil. Biological Example 1—Post-Emergence Application—Herbicidal Activity Results (Percentage Phytotoxicity) Dicotyledonous weeds: ABUTH=Abutilon theophrasti; AMARE=Amaranthus retroflexus. Grassy monocotyledonous weeds: SETFA=Setaria faberi; ALOMY=Alopecurus myosuroides; ECHCG=Echinochloa crus-galli; ZEAMX=Zea mays (corn, maize, e.g. volunteer corn).

Setaria faberi = test: Glasshouse assay for herbicidal activity, post-emergence, SETFA; settings: visual 13 days after application, 100%=total damage; for pest or weed control at 250 g/ha / pest or weed control at 30 g/ha: Setaria faberi, 312 h, read-out: Percentage phytotoxicity SETFA
Protocol: as §1

Abutilon theophrasti = test: Glasshouse assay for herbicidal activity, post-emergence, ABUTH; settings: visual 13 days after application, 100%=total damage; for pest or weed control at 250 g/ha / pest or weed control at 30 g/ha: Abutilon theophrasti, 312 h, read-out: Percentage phytotoxicity ABUTH
Protocol: as §1

[1] = test system: Zea mays (corn, maize, e.g. volunteer corn); test: Glasshouse assay for herbicidal activity, post-emergence, ZEAMX; settings: visual 13 days after application, 100%=total damage; for pest or weed control at 250 g/ha / pest or weed control at 30 g/ha: Zea mays, 312 h, read-out: Percentage phytotoxicity ZEAMX
Protocol: as §1

Amaranthus retroflexus = test: Glasshouse assay for herbicidal activity, post-emergence, AMARE; settings: visual 13 days after application, 100%=total damage; for pest or weed control at 250 g/ha / pest or weed control at 30 g/ha: Amaranthus retroflexus, 312 h, read-out: Percentage phytotoxicity AMARE
Protocol: as §1

Alopecurus myosuroides = test: Glasshouse assay for herbicidal activity, post-emergence, ALOMY; settings: visual 13 days after application, 100%=total damage; for pest or weed control at 250 g/ha / pest or weed control at 30 g/ha: Alopecurus myosuroides, 312 h, read-out: Percentage phytotoxicity ALOMY
Protocol: as §1

Molecule | pest or weed control at 250 g/ha (Echinochloa crus-galli; 250 g/ha) | pest or weed control at 250 g/ha (Setaria faberi; 250 g/ha) | pest or weed control at 250 g/ha (Abutilon theophrasti; 250 g/ha) | pest or weed control at 250 g/ha ([1]; 250 g/ha) | pest or weed control at 250 g/ha (Amaranthus retroflexus; 250 g/ha) | pest or weed control at 250 g/ha (Alopecurus myosuroides; 250 g/ha) | Percentage phytotoxicity ECHCG (Echinochloa crus-galli; 250 g/ha) | Percentage phytotoxicity SETFA (Setaria faberi; 250 g/ha) | Percentage phytotoxicity ABUTH (Abutilon theophrasti; 250 g/ha) | Percentage phytotoxicity ZEAMX ([1]; 250 g/ha) | Percentage phytotoxicity AMARE (Amaranthus retroflexus; 250 g/ha) | Percentage phytotoxicity ALOMY (Alopecurus myosuroides; 250 g/ha) | pest or weed control at 30 g/ha (Echinochloa crus-galli) | pest or weed control at 30 g/ha (Setaria faberi) | pest or weed control at 30 g/ha (Abutilon theophrasti) | pest or weed control at 30 g/ha [1] | pest or weed control at 30 g/ha (Amaranthus retroflexus) | pest or weed control at 30 g/ha (Alopecurus myosuroides)
CC#Cc1ccc(C2=C(OC(=O)c3ccccc3)C3CCC(C3)C2=O)c(OC)c1 (stereo not drawn) [Compound P12] | 100% | 90% | 70% | 100% | 20% | 100% |  |  |  |  |  |  |  |  |  |  |  | 
4-(2,6-Dimethoxy-4-prop-1-ynyl-phenyl)-2,2,6,6-tetramethyl-tetrahydropyran-3,5-dione [Compound A2] |  |  |  |  |  |  | 70% | 90% | 10% | 70% | 0% | 90% |  |  |  |  |  | 
CC#Cc1ccc(C2=C(OS(C)(=O)=O)C3CCC(C3)C2=O)c(OC)c1 (stereo not drawn) [Compound P16] | 90% | 70% | 40% | 100% | 40% | 80% |  |  |  |  |  |  |  |  |  |  |  | 
CC#Cc1ccc(C2=C(OC(=O)C(C)(C)C)C3CCC(C3)C2=O)c(OC)c1 (stereo not drawn) [Compound P11] | 100% | 100% | 70% | 100% | 20% | 90% |  |  |  |  |  |  |  |  |  |  |  | 
C#CCOC1=C(c2ccc(C#CC)cc2OC)C(=O)C2CCC1C2 (stereo not drawn) [Compound P2, 3-(2-methoxy-4-prop-1-ynyl-phenyl)-2-prop-2-ynoxy-bicyclo[3.2.1]oct-2-en-4-one] | 90% | 80% | 0% | 100% | 0% | 70% |  |  |  |  |  |  |  |  |  |  |  | 
C=CC(=O)OC1=C(c2ccc(C#CC)cc2OC)C(=O)C2CCC1C2 (stereo not drawn) [Compound P18] | 100% | 90% | 70% | 100% | 30% | 90% |  |  |  |  |  |  |  |  |  |  |  | 
CC#Cc1ccc(C2C(=O)C3CCC(C3)C2=O)c(CCC)c1 (stereo not drawn) [Compound A16, 3-(2-propyl-4-prop-1-ynyl-phenyl)bicyclo[3.2.1]octane-2,4-dione] | 100% | 100% | 0% | 100% | 0% | 100% |  |  |  |  |  |  |  |  |  |  |  | 
CC#Cc1ccc(C2C(=O)C3CCC(C3)C2=O)c(OCCOC)c1 (stereo not drawn) [Compound A15, 3-[2-(2-methoxyethoxy)-4-prop-1-ynyl-phenyl]bicyclo[3.2.1]octane-2,4-dione] | 40% | 80% | 0% | 80% | 0% | 20% |  |  |  |  |  |  | 10% | 50% | 0% | 40% | 0% | 10%
CC#Cc1ccc(C2=C(OC(=O)SCC)C3CCC(C3)C2=O)c(OC)c1 (stereo not drawn) [Compound P14] | 100% | 100% | 70% | 100% | 20% | 90% |  |  |  |  |  |  |  |  |  |  |  | 
CC#Cc1ccc(C2C(=O)C3CCC(C3)C2=O)c(OCC(F)(F)F)c1 (stereo not drawn) [Compound A4] | 40% | 70% | 0% | 60% | 0% | 30% |  |  |  |  |  |  | 20% | 40% | 0% | 30% | 0% | 10%
C=CCOC1=C(c2ccc(C#CC)cc2OC)C(=O)C2CCC1C2 (stereo not drawn) [Compound P3] | 100% | 90% | 0% | 100% | 10% | 70% |  |  |  |  |  |  |  |  |  |  |  | 
CC#Cc1ccc(C2=C(OC(=O)OC)C3CCC(C3)C2=O)c(OC)c1 (stereo not drawn) [Compound P7] | 100% | 90% | 40% | 100% | 30% | 90% |  |  |  |  |  |  |  |  |  |  |  | 
CC#Cc1ccc(C2C(=O)CC3(CCOCC3)CC2=O)c(OC)c1 [Compound A12] | 100% | 100% | 20% | 100% | 30% | 100% |  |  |  |  |  |  | 100% | 100% | 0% | 100% | 0% | 90%
CC#Cc1ccc(C2=C(OC(=O)OCC)C3CCC(C3)C2=O)c(OC)c1 (stereo not drawn) [Compound P8] | 100% | 90% | 60% | 100% | 20% | 90% |  |  |  |  |  |  |  |  |  |  |  | 
CC#Cc1ccc(C2=C(OC(=O)CC)C3CCC(C3)C2=O)c(OC)c1 (stereo not drawn) [Compound P6] | 100% | 90% | 60% | 100% | 40% | 90% |  |  |  |  |  |  |  |  |  |  |  | 
CC#Cc1ccc(C2C(=O)CCCC2=O)c(OC)c1 [Compound A10] | 30% | 70% | 10% | 90% | 20% | 70% |  |  |  |  |  |  | 20% | 60% | 0% | 90% | 10% | 0%
CC#Cc1ccc(C2=C(OC(=O)C(C)C)C3CCC(C3)C2=O)c(OC)c1 (stereo not drawn) [Compound P10] | 100% | 90% | 70% | 100% | 40% | 90% |  |  |  |  |  |  |  |  |  |  |  | 
CC#Cc1cc(OC)c(C2C(=O)C3CCC(C3)C2=O)c(OC)c1 (stereo not drawn) [Compound A7] | 100% | 100% | 10% | 100% | 0% | 100% |  |  |  |  |  |  | 100% | 100% | 0% | 100% | 0% | 90%
CC#Cc1ccc(C2=C(OC(=O)Sc3ccccc3)C3CCC(C3)C2=O)c(OC)c1 (stereo not drawn) [Compound P13] | 100% | 100% | 40% | 100% | 60% | 90% |  |  |  |  |  |  |  |  |  |  |  | 
